Source: US20030022241A1, “Methods” (priority 2001, published 2003)

Molecular target: native MNK-2B (Homo sapiens, UniProt Q9HBH9)
Assay: NMR screening (Saturation Transfer Difference) for compounds binding Mnk2b
Details: screen: 1 μM native MNK-2B, 200 μM compound mixture; confirmation: 2 μM native Mnk2B, 250 μM individual compound; pH 7.5, 20° C.
Source text: A diversity library consisting of relatively small and highly water-soluble compounds was used to screen native MNK-2B for binders by NMR (Nuclear Magnetic Resonance). The NMR tecinique used to identify binders was Saturation Transfer Difference (STD): the protein ^1H resonances are saturated by means of a weak radio-frequency field applied to a narrow spectral region. The saturation is transferred by spin diffusion to the rest of the protein and subsequently further to compounds that bind to the protein attenuating their signals in the NMR spectrum. The spectrum is then subtracted from a spectrum obtained at non-saturating conditions to obtain an STD spectrum showing only the signals from compounds interacting with the protein. In practice the pulse sequence is written in such a way that the subtraction is done automatically in every other scan, i.e. the individual spectra are never observed (Mayer & Meyer, Angew. Chem. Int. Ed., 38, 1784-1788, 1999).
The compounds in the library are divided into mixtures consisting of 4-8 compounds each. Each sample contained 1 μM native MNK-2B, 200 μM compound mixture, 50 mM sodium phosphate buffer, 1 mM DTT, pH 7.5 in ca 98% D2O/2% H2O. […] The volume was 600 μl and standard NMR tubes were used. […] A reference ^1H 1D experiment and an STD experiment were recorded on each sample. […]

native MNK-2B, sequence (Q9HBH9 1-414 isoform Q9HBH9-2): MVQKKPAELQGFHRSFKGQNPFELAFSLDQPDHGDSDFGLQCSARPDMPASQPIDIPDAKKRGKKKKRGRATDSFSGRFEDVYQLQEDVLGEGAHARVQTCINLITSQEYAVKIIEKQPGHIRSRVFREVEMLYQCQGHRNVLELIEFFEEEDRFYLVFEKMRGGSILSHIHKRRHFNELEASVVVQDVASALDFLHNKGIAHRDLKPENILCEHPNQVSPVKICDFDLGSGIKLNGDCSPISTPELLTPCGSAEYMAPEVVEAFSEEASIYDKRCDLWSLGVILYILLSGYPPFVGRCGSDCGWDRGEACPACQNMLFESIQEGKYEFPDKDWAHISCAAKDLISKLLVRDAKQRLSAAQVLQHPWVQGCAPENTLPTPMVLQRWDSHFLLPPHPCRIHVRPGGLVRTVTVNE

binding to Mnk2b by STD NMR (identified as ligand): identified as Mnk2b ligands
SMILES: COC(=O)c1ccc(O)cc1 [4-hydroxy-benzoic acid methyl ester]
